The source made the active and inactive calls. No cut-off for these calls is given here.
Experiments:
[1] = Distribution coefficient, log D at pH 7.4; assay type: physicochemical; settings: octanol/water
Phospholipidosis = test: In vitro phospholipidosis at <20uM; assay type: ADME
Rattus norvegicus [2] = test: Antidiabetic activity in Zucker fa/fa rat assessed as reduction in glucose level at 0.3 mg/kg pretreated 2 hrs before glucose challenge measured after 40 mins by oral glucose tolerance test; assay type: functional; set-up: scale not given: the % may be the effect or the level left
[3] = Permeability coefficient by PAMPA; assay type: ADME
hERG (KCNH2) [4] = target: T1, hERG (KCNH2) (Homo sapiens, UniProt Q12809); test: Inhibition of human ERG at 10 uM by patch clamp assay
T1 sequence (Q12809 whole entry): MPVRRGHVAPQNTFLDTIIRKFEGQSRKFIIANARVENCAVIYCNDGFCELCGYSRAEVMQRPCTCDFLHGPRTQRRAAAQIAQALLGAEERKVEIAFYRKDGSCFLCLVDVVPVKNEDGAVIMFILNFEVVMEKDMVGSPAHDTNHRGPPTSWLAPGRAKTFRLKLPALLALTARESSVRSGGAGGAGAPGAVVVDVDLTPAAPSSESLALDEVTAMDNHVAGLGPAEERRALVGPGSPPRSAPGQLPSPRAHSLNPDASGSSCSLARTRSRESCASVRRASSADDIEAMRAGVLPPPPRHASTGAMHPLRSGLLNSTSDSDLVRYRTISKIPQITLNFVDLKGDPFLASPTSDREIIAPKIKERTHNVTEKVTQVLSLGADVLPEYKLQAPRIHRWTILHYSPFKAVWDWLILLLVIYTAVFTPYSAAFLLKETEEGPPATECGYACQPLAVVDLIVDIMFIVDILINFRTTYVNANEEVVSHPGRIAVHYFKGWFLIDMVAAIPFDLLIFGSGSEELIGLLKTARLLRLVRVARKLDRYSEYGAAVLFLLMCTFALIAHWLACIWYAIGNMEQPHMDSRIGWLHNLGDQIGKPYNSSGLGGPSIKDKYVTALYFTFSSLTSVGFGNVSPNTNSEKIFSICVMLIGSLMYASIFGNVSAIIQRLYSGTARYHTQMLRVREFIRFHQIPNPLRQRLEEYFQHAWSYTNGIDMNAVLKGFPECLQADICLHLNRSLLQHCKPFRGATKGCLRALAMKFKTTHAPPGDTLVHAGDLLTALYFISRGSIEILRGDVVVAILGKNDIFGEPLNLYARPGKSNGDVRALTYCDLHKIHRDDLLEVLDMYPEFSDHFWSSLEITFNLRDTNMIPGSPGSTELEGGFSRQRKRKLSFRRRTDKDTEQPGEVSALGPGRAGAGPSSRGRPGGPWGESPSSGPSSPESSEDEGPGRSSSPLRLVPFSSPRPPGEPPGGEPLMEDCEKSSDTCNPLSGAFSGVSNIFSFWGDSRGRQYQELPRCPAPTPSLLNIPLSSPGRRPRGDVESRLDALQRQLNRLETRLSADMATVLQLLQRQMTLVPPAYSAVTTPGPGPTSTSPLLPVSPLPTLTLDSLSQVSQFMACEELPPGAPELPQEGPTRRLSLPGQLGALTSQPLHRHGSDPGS

Mus musculus [5] = test: Antidiabetic activity in db/db mouse assessed as reduction in glucose AUC at 10 mg/kg by oral glucose tolerance test relative to control; assay type: functional; set-up: scale not given: the % may be the effect or the level left
Rattus norvegicus [6] = test: Antidiabetic activity in Zucker fa/fa rat assessed as increase in glucose infusion rate at 20 mg/kg daily once for 7 days by euglycemic hyperinsulinemic clamp; assay type: functional, organism-based; set-up: dose 20 mg/kg
Mus musculus [7] = test: Antidiabetic activity in db/db mouse assessed as reduction in fasting glucose level at 10 mg/kg; assay type: functional, organism-based; set-up: dose 10 mg/kg
[8] = Volume of distribution at steady state in cynomolgus monkey at 1 mg/kg, iv; assay type: ADME, organism-based, Macaca fascicularis; set-up: dose 1 mg/kg, route intravenous; settings: in vivo, read-out: Vdss
[9] = Half life in cynomolgus monkey at 1 mg/kg, iv; assay type: ADME, organism-based, Macaca fascicularis; set-up: dose 1 mg/kg, route intravenous; settings: in vivo
[10] = Oral bioavailability in cynomolgus monkey at 3 mg/kg; assay type: ADME, organism-based, Macaca fascicularis; settings: in vivo
[11] = Clearance in Wistar rat at 1 mg/kg, iv; assay type: ADME, organism-based; set-up: dose 1 mg/kg, route intravenous; settings: in vivo
[12] = Clearance in cynomolgus monkey at 1 mg/kg, iv; assay type: ADME, organism-based, Macaca fascicularis; set-up: dose 1 mg/kg, route intravenous; settings: in vivo
[13] = Oral bioavailability in Wistar rat at 3 mg/kg; assay type: ADME, organism-based; settings: in vivo
[14] = Volume of distribution at steady state in Wistar rat at 1 mg/kg, iv; assay type: ADME, organism-based; set-up: dose 1 mg/kg, route intravenous; settings: in vivo, read-out: Vdss
[15] = Half life in Wistar rat at 1 mg/kg, iv; assay type: ADME, organism-based; set-up: dose 1 mg/kg, route intravenous; settings: in vivo
Cynomolgus monkey [16] = test: Inhibition of DPP4 in cynomolgus monkey plasma assessed as remaining activity at 3 mg/kg, po after 24 hrs relative to control; assay type: functional, Macaca fascicularis
Cynomolgus monkey [17] = test: Inhibition of DPP4 in cynomolgus monkey plasma assessed as remaining activity at 3 mg/kg, po after 48 hrs relative to control; assay type: functional, Macaca fascicularis
Canis familiaris = species: Canis familiaris; test: Renal clearance in dog as % of total clearance; assay type: ADME, organism-based, Canis lupus familiaris, Kidney; settings: in vivo
Rattus norvegicus [18] = species: Rattus norvegicus; test: Renal clearance in rat as % of total clearance; assay type: ADME, organism-based, Kidney; settings: in vivo
Rhesus monkey = test: Renal clearance in monkey as % of total clearance; assay type: ADME, organism-based, Macaca mulatta, Kidney; settings: in vivo
Rattus norvegicus [19] = test: Antidiabetic activity in Zucker fa/fa rat assessed as reduction in hepatic glucose production at 20 mg/kg daily once for 7 days by euglycemic hyperinsulinemic clamp; assay type: functional
hERG (KCNH2) [20] = target: T1, hERG (KCNH2); test: Inhibition of human ERG by patch clamp assay

## COc1cc2c(cc1OC)C1CC(N)C(N3CC(C)CCC3=O)CN1CC2 (stereo not given)
[1]
  logD: 0
Phospholipidosis
  Phospholipidosis: Not Active
Rattus norvegicus [2]
  Activity: 34%
[3]
  permeability: 1.1 ×10⁻⁶ cm/s

## COc1cc2c(cc1OC)C1CC(N)C(N3CCOC3=O)CN1CC2 (stereo not given)
[1]
  logD: -0.8
[3]
  permeability: 0 ×10⁻⁶ cm/s

## COc1cc2c(cc1OC)C1CC(N)C(N3CCCOC3=O)CN1CC2 (stereo not given)
[1]
  logD: -0.9
[3]
  permeability: 0.1 ×10⁻⁶ cm/s

## COc1cc2c(cc1OC)C1CC(N)C(N3CCC(C)CC3=O)CN1CC2 (stereo not given)
[1]
  logD: -0.2
Rattus norvegicus [2]
  Activity: 16%
[3]
  permeability: 0.5 ×10⁻⁶ cm/s

## CCC1CC(=O)N(C2CN3CCc4cc(OC)c(OC)cc4C3CC2N)C1 (stereo not given)
[1]
  logD: -0.1
hERG (KCNH2) [4]
  inhibition at 10 µM: 45%
Rattus norvegicus [2]
  Activity: 31%
[3]
  permeability: 0.9 ×10⁻⁶ cm/s

## COc1cc2c(cc1OC)C1CC(N)C(N3CCC[S+]3[O-])CN1CC2 (stereo not given)
[1]
  logD: -0.7
[3]
  permeability: 1.2 ×10⁻⁶ cm/s

## COc1cc2c(cc1OC)C1CC(N)C(N3CC(C)CC3=O)CN1CC2 (stereo not given)
[1]
  logD: -0.2
hERG (KCNH2) [4]
  inhibition at 10 µM: 9%
Phospholipidosis
  Phospholipidosis: Not Active
Rattus norvegicus [2]
  Activity: 42%
[3]
  permeability: 0.2 ×10⁻⁶ cm/s

## COc1cc2c(cc1OC)[C@@H]1C[C@H](N)[C@@H](N3C[C@@H](C)CC3=O)CN1CC2
Mus musculus [5]
  Activity: 50%
[1]
  logD: -0.1
Rattus norvegicus [6]
  Activity: Active
Mus musculus [7]
  Activity: Active
Phospholipidosis
  Phospholipidosis: Not Active
Rattus norvegicus [2]
  Activity: 79%
[3]
  permeability: 0.6 ×10⁻⁶ cm/s

## COc1cc2c(cc1OC)[C@@H]1C[C@H](N)[C@@H](N3C[C@H](CF)CC3=O)CN1CC2
Mus musculus [5]
  Activity: 20%
[1]
  logD: -0.4
Phospholipidosis
  Phospholipidosis: Not Active
Rattus norvegicus [2]
  Activity: 77%
[3]
  permeability: 0.4 ×10⁻⁶ cm/s

## COc1cc2c(cc1OC)C1CC(N)C(N3CCCC[S+]3[O-])CN1CC2 (stereo not given)
[1]
  logD: -0.4
Rattus norvegicus [2]
  Activity: 18%
[3]
  permeability: 0.7 ×10⁻⁶ cm/s

## COc1cc2c(cc1OC)[C@@H]1C[C@H](N)[C@@H](N3C[C@H](C)CC3=O)CN1CC2
[1]
  logD: -0.3
Rattus norvegicus [2]
  Activity: 46%
[3]
  permeability: 0.8 ×10⁻⁶ cm/s

## COc1cc2c(cc1OC)C1CC(N)C(N3CCCCC3=O)CN1CC2 (stereo not given)
[1]
  logD: -0.5
Rattus norvegicus [2]
  Activity: 33%
[3]
  permeability: 0.2 ×10⁻⁶ cm/s

## COc1cc2c(cc1OC)[C@@H]1C[C@H](N)[C@@H](N3CCCCC3=O)CN1CC2
[8]
  Vd: 8.6 L/kg
[1]
  logD: -0.5
[9]
  half-life: 9.4 h
[10]
  bioavailability: 64%
[11]
  clearance: 25 mL/min/kg
[12]
  clearance: 18.7 mL/min/kg
hERG (KCNH2) [4]
  inhibition at 10 µM: 45%
[13]
  bioavailability: 47%
Phospholipidosis
  Phospholipidosis: Not Active
Rattus norvegicus [2]
  Activity: 56%
[14]
  Vd: 5.9 L/kg
[15]
  half-life: 4.5 h
[3]
  permeability: 0.2 ×10⁻⁶ cm/s

## COc1cc2c(cc1OC)C1CC(N)C(N3CCCC3=O)CN1CC2 (stereo not given)
[1]
  logD: -0.5
[3]
  permeability: 0.6 ×10⁻⁶ cm/s

## COc1cc2c(cc1OC)[C@@H]1C[C@H](N)[C@@H](N3C[C@@H](CF)CC3=O)CN1CC2 [CARMEGLIPTIN]
[8]
  Vd: 3.3 L/kg
Mus musculus [5]
  Activity: 30%
Cynomolgus monkey [16]
  Activity: 40%
Cynomolgus monkey [17]
  Activity: 60%
Canis familiaris
  Fraction cleared renally: 30%
[1]
  logD: -0.5
[9]
  half-life: 6.8 h
Rattus norvegicus [18]
  Fraction cleared renally: 30%
Rattus norvegicus [6]
  Activity: Active
[10]
  bioavailability: 33%
[11]
  clearance: 24 mL/min/kg
[12]
  clearance: 8.5 mL/min/kg
[13]
  bioavailability: 28%
Rhesus monkey
  Fraction cleared renally: 30%
Mus musculus [7]
  Activity: Active
Phospholipidosis
  Phospholipidosis: Not Active
Rattus norvegicus [2]
  Activity: 66%
Rattus norvegicus [19]
  Activity: 1.3 mg/min/kg
hERG (KCNH2) [20]
  IC20: 21 µM
[14]
  Vd: 6.3 L/kg
[15]
  half-life: 5.3 h
[3]
  permeability: 0.13 ×10⁻⁶ cm/s
